These results are taken from US20120190669A1, “OXINDOLE COMPOUNDS” (CYLENE PHARMACEUTICALS, INC., priority 2008, published 2012).

The target in one test is recombinant PIM-1 (Homo sapiens, UniProt P11309). Description: PIM-1 kinase assay (radiometric, 15 uM ATP, DMSO 4%). Type of test: biochemical. The conditions noted are these: Table 1; % inhibition at the high dose (2 micromolar) in a single screening assay; 15 μM ATP. Here is the method: The following procedure was used to assay the PIM-1 kinase activity of compounds of the invention. Other methods for assaying PIM-1 and other PIM kinases, as well as methods to assay for activity against the various kinases in FIG. 1, are known in the art.
Chain of recombinant PIM-1 (P11309 whole entry): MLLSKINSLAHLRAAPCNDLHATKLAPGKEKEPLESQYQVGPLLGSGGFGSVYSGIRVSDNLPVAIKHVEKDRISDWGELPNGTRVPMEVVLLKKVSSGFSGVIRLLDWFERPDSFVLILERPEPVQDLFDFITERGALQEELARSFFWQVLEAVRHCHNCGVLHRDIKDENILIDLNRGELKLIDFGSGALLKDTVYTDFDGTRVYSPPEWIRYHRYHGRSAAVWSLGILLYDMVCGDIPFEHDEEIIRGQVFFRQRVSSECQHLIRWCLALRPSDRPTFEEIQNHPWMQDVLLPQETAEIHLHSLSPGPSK
(specific activity approx. 500 cpm/pmol), DMSO 4% and test inhibitor compound at the required concentration. The reaction was initiated by the addition of the Magnesium ATP mixture. After 40 min incubation at 23° C., the reactions were quenched by the addition of 100 ul 0.75% Phosphoric acid, and the labeled peptide collected by filtration through a phosphocellulose filter plate. The plate was washed 4 times with 0.075% phosphoric acid (100 ul per well) and then, after the addition of scintillation fluid (20 ul per well), the counts were measured by a scintillation counter.
Consider `Cn1cncc1CNC(=O)c1ccccc1-c1ccc(/C=C2/C(=O)Nc3ccc(F)cc32)o1` [Compound 65], for which the inhibition (as a rule, the relative decrease from the control value, in per cent) at 2 µM was -2.39%.
As to `CN1CCCCC1CNC(=O)c1ccccc1-c1ccc(/C=C2/C(=O)Nc3ccc(F)cc32)o1` (stereo not drawn) [Compound 66], the inhibition at 2 µM turned out to be 4.53%.
Consider `CN(C)C1CCN(C(=O)c2ccccc2-c2ccc(/C=C3/C(=O)Nc4ccc(F)cc43)o2)CC1` [Compound 67], for which the inhibition at 2 µM came out at 8.84%.
On the same count and under the same terms, the value for `CCN(CC)CCNC(=O)c1ccccc1-c1ccc(/C=C2/C(=O)Nc3ccc(F)cc32)o1` [Compound 68] was 11.2%; that for `CN1CCCC(NC(=O)c2cc(-c3ccc(/C=C4/C(=O)Nc5ccc(F)cc54)o3)ccc2Cl)C1` (stereo not drawn) [Compound 70] was 27.6%.
The same measure, in the same setting: then `CCN1CCCC1CNC(=O)c1cc(-c2ccc(/C=C3/C(=O)Nc4ccc(F)cc43)o2)ccc1Cl` (stereo not drawn) [Compound 71], with 5.32%; and `CN1CCC(N(C)C(=O)c2cc(-c3ccc(/C=C4/C(=O)Nc5ccc(F)cc54)o3)ccc2Cl)C1` (stereo not drawn) [Compound 72], with 37.1%; and `O=C1Nc2ccc(F)cc2/C1=C\c1ccc(-c2ccc(Cl)c(C(=O)NCCN3CCCC3)c2)o1` [Compound 73], with 20.9%.
For `CCN(CC)CCNC(=O)c1cc(-c2ccc(/C=C3/C(=O)Nc4ccc(F)cc43)o2)ccc1Cl` [Compound 74], the inhibition at 2 µM was determined as 15.6%.
Still for that read-out and setting: the value for `CN(C)C1CCN(C(=O)c2cc(-c3ccc(/C=C4/C(=O)Nc5ccc(F)cc54)o3)ccc2Cl)CC1` [Compound 75] was 27.8%; that for `CN1CCCCC1CNC(=O)c1cc(-c2ccc(/C=C3/C(=O)Nc4ccc(F)cc43)o2)ccc1Cl` (stereo not drawn) [Compound 76] was 15.7%.
Still for that read-out and setting: then `O=C1Nc2ccc(F)cc2/C1=C\c1ccc(-c2ccc(Cl)c(C(=O)N3CCCCC3)c2)o1` [Compound 77], with -17%; and `O=C1Nc2ccccc2/C1=C\c1ccc(-c2cc(C(=O)NCCN3CCCC3)ccc2F)o1` [Compound 78], with 88.3%; and `O=C1Nc2ccccc2/C1=C\c1ccc(-c2cc(F)cc(C(=O)NCCN3CCCC3)c2)o1` [Compound 79], with 43.3%.
On the same count and under the same terms, the value for `CCN(CC)CCNC(=O)c1ccc(-c2ccc(/C=C3/C(=O)Nc4ccc(F)cc43)o2)cc1` [Compound 80] was 94.2%; that for `O=C1Nc2ccc(F)cc2/C1=C\c1ccc(-c2ccc(C(=O)NCCN3CCCC3)cc2)o1` [Compound 81] was 94.8%.
On to `Cc1cnc(CNC(=O)c2ccc(-c3ccc(/C=C4/C(=O)Nc5ccc(F)cc54)o3)cc2)cn1` [Compound 82], for which the inhibition at 2 µM is 26.6%.
As to `CN1CCC(N(C)C(=O)c2ccc(-c3ccc(/C=C4/C(=O)Nc5ccc(F)cc54)o3)cc2)C1` (stereo not drawn) [Compound 83], the inhibition at 2 µM came to 54.8%.
As to `CCN1CCCC1CNC(=O)c1ccc(-c2ccc(/C=C3/C(=O)Nc4ccc(F)cc43)o2)cc1` (stereo not drawn) [Compound 84], the inhibition at 2 µM came out at 91.3%.
Consider `CN1CCCC(NC(=O)c2ccc(-c3ccc(/C=C4/C(=O)Nc5ccc(F)cc54)o3)cc2)C1` (stereo not drawn) [Compound 85], for which the inhibition at 2 µM was 84.5%.
The same measure, in the same setting: the value for `CN1CCCCC1CNC(=O)c1ccc(-c2ccc(/C=C3/C(=O)Nc4ccc(F)cc43)o2)cc1` (stereo not drawn) [Compound 86] was 90.6%; that for `CN(C)C1CCN(C(=O)c2ccc(-c3ccc(/C=C4/C(=O)Nc5ccc(F)cc54)o3)cc2)CC1` [Compound 87] was 51.9%.
The same measure, in the same setting: the value for `O=C1Nc2ccc(F)cc2/C1=C\c1cc(-c2cccc(C(=O)NCCN3CCCC3)c2)co1` [Compound 88] was 9%; that for `CN1CCCC(NC(=O)c2cccc(-c3coc(/C=C4/C(=O)Nc5ccc(F)cc54)c3)c2)C1` (stereo not drawn) [Compound 89] was 6.1%; that for `CCN1CCCC1CNC(=O)c1cccc(-c2coc(/C=C3/C(=O)Nc4ccc(F)cc43)c2)c1` (stereo not drawn) [Compound 90] was 17.1%.
On the same count and under the same terms, the value for `CN1CCC(N(C)C(=O)c2cccc(-c3coc(/C=C4/C(=O)Nc5ccc(F)cc54)c3)c2)C1` (stereo not drawn) [Compound 91] was 2.87%; that for `Cn1cncc1CNC(=O)c1cccc(-c2coc(/C=C3/C(=O)Nc4ccc(F)cc43)c2)c1` [Compound 92] was 12.7%; that for `CN1CCCCC1CNC(=O)c1cccc(-c2coc(/C=C3/C(=O)Nc4ccc(F)cc43)c2)c1` (stereo not drawn) [Compound 93] was 9.42%.
As to `CCN(CC)CCNC(=O)c1cccc(-c2coc(/C=C3/C(=O)Nc4ccc(F)cc43)c2)c1` [Compound 94], the inhibition at 2 µM was 11.5%.
Same read-out and setting: the value for `O=C1Nc2ccc(F)cc2/C1=C\c1cc(-c2cccc(C(=O)NCc3ccncc3)c2)co1` [Compound 95] was -19.1%; that for `CN(C)C1CCN(C(=O)c2cccc(-c3coc(/C=C4/C(=O)Nc5ccc(F)cc54)c3)c2)CC1` [Compound 96] was 10.8%.
Still for that read-out and setting: the value for `O=C1Nc2c(F)cccc2/C1=C\c1ccc(-c2ccc(Cl)c(C(=O)NCCN3CCCC3)c2)o1` [Compound 104] was -5.3%; that for `O=C1Nc2c(Cl)cccc2/C1=C\c1ccc(-c2ccc(Cl)c(C(=O)NCCN3CCCC3)c2)o1` [Compound 105] was -16.7%.
On the same count and under the same terms, the value for `O=C1Nc2ccc(Cl)cc2/C1=C\c1ccc(-c2ccc(Cl)c(C(=O)NCCN3CCCC3)c2)o1` [Compound 106] was 22.2%.
As for `Cc1cnc(CNC(=O)c2cccc(-c3ccc(/C=C4/C(=O)Nc5ccc(Cl)cc54)o3)c2)cn1` [Compound 107], the inhibition at 2 µM came out at 21%.
The same measure, in the same setting: the value for `CN1CCCC(NC(=O)c2cccc(-c3ccc(/C=C4/C(=O)Nc5ccc(Cl)cc54)o3)c2)C1` (stereo not drawn) [Compound 111] was 42.6%.
The same measure, in the same setting: the value for `CN(C)C1CCN(C(=O)c2cccc(-c3ccc(/C=C4/C(=O)Nc5ccc(Cl)cc54)o3)c2)CC1` [Compound 113] was 38.1%; that for `CN1CCN(C(=O)c2cccc(-c3ccc(/C=C4/C(=O)Nc5ccc(Cl)cc54)o3)c2)CC1` [Compound 114] was 23%; that for `O=C1Nc2ccc(Cl)cc2/C1=C\c1ccc(-c2cccc(C(=O)NCc3ccccn3)c2)o1` [Compound 117] was 19.2%.
Still for that read-out and setting: then `Cn1ccnc1CNC(=O)c1cccc(-c2ccc(/C=C3/C(=O)Nc4ccc(Cl)cc43)o2)c1` [Compound 119], with 37%; and `CC1CCN(CCCNC(=O)c2cccc(-c3ccc(/C=C4/C(=O)Nc5ccc(Cl)cc54)o3)c2)CC1` [Compound 121], with 25.2%.
Regarding `CC1CCCN(CCCNC(=O)c2cccc(-c3ccc(/C=C4/C(=O)Nc5ccc(Cl)cc54)o3)c2)C1` (stereo not drawn) [Compound 122], the inhibition at 2 µM amounted to 39.3%.
Take `CN(C)CCCOc1ccc(-c2ccc(/C=C3/C(=O)Nc4ccccc43)o2)cn1` [Compound 125]: the inhibition at 2 µM came to 41.5%.
As for `CN1CCN(c2ccc(-c3ccc(/C=C4/C(=O)Nc5ccccc54)o3)cn2)CC1` [Compound 126], the inhibition at 2 µM was determined as 19.5%.

The same test, now with this note: Table 1; given for compounds with IC50 at or below 2 micromolar; 15 uM ATP; read-out: PIM-1 IC50.
Consider `O=C1Nc2ccccc2/C1=C\c1ccc(-c2cc(C(=O)NCCN3CCCC3)ccc2F)o1` [Compound 78], for which the IC50 (as a rule, the midpoint of a concentration-inhibition curve) is less than 1 µM.
Take `O=C1Nc2ccccc2/C1=C\c1ccc(-c2cc(F)cc(C(=O)NCCN3CCCC3)c2)o1` [Compound 79]: the concentration for half-maximal inhibition (IC50) is less than 2 µM.
For `CCN(CC)CCNC(=O)c1ccc(-c2ccc(/C=C3/C(=O)Nc4ccc(F)cc43)o2)cc1` [Compound 80], the IC50 is less than 1 µM.
Consider `O=C1Nc2ccc(F)cc2/C1=C\c1ccc(-c2ccc(C(=O)NCCN3CCCC3)cc2)o1` [Compound 81], for which the IC50 is less than 1 µM.
As to `CN1CCC(N(C)C(=O)c2ccc(-c3ccc(/C=C4/C(=O)Nc5ccc(F)cc54)o3)cc2)C1` (stereo not drawn) [Compound 83], the IC50 is less than 1 µM.
On the same count and under the same terms, the value for `CCN1CCCC1CNC(=O)c1ccc(-c2ccc(/C=C3/C(=O)Nc4ccc(F)cc43)o2)cc1` (stereo not drawn) [Compound 84] was less than 1 µM; that for `CN1CCCC(NC(=O)c2ccc(-c3ccc(/C=C4/C(=O)Nc5ccc(F)cc54)o3)cc2)C1` (stereo not drawn) [Compound 85] was less than 2 µM.
In the case of `CN1CCCCC1CNC(=O)c1ccc(-c2ccc(/C=C3/C(=O)Nc4ccc(F)cc43)o2)cc1` (stereo not drawn) [Compound 86], the IC50 is less than 1 µM.
On the same count and under the same terms, then `CN(C)C1CCN(C(=O)c2ccc(-c3ccc(/C=C4/C(=O)Nc5ccc(F)cc54)o3)cc2)CC1` [Compound 87], with less than 2 µM; and `CCN(CC)CCNC(=O)c1ccc(Cl)c(-c2ccc(/C=C3/C(=O)Nc4ccc(F)cc43)o2)c1` [Compound 97], with less than 1 µM.
Turning to `CN1CCC(N(C)C(=O)c2ccc(Cl)c(-c3ccc(/C=C4/C(=O)Nc5ccc(F)cc54)o3)c2)C1` (stereo not drawn) [Compound 99], the IC50 was less than 1 µM.
For `CCN1CCCC1CNC(=O)c1ccc(Cl)c(-c2ccc(/C=C3/C(=O)Nc4ccc(F)cc43)o2)c1` (stereo not drawn) [Compound 100], the IC50 is less than 1 µM.
The same measure, in the same setting: then `CN1CCCC(NC(=O)c2ccc(Cl)c(-c3ccc(/C=C4/C(=O)Nc5ccc(F)cc54)o3)c2)C1` (stereo not drawn) [Compound 101], with less than 2 µM; and `CN1CCCCC1CNC(=O)c1ccc(Cl)c(-c2ccc(/C=C3/C(=O)Nc4ccc(F)cc43)o2)c1` (stereo not drawn) [Compound 102], with less than 2 µM; and `CN(C)C1CCN(C(=O)c2ccc(Cl)c(-c3ccc(/C=C4/C(=O)Nc5ccc(F)cc54)o3)c2)CC1` [Compound 103], with less than 2 µM.
Still for that read-out and setting: then `O=C1Nc2ccc(Cl)cc2/C1=C\c1ccc(-c2cccc(C(=O)NCc3ccncc3)c2)o1` [Compound 108], with less than 1 µM.
Same read-out and setting: the value for `CN1CCC(N(C)C(=O)c2cccc(-c3ccc(/C=C4/C(=O)Nc5ccc(Cl)cc54)o3)c2)C1` (stereo not drawn) [Compound 109] was less than 2 µM.
On to `Cn1cncc1CNC(=O)c1cccc(-c2ccc(/C=C3/C(=O)Nc4ccc(Cl)cc43)o2)c1` [Compound 110], for which the IC50 was less than 1 µM.
Regarding `CCN1CCCC1CNC(=O)c1cccc(-c2ccc(/C=C3/C(=O)Nc4ccc(Cl)cc43)o2)c1` (stereo not drawn) [Compound 112], the IC50 is less than 1 µM.
As for `O=C1Nc2ccc(Cl)cc2/C1=C\c1ccc(-c2cccc(C(=O)NCc3cccnc3)c2)o1` [Compound 116], the IC50 was less than 1 µM.
Still for that read-out and setting: the value for `CN(C)CCNC(=O)c1cccc(-c2ccc(/C=C3/C(=O)Nc4ccc(Cl)cc43)o2)c1` [Compound 118] was less than 1 µM.
Take `CCN(CC)CCNC(=O)c1cccc(-c2ccc(/C=C3/C(=O)Nc4ccc(Cl)cc43)o2)c1` [Compound 120]: the IC50 is less than 2 µM.
The same measure, in the same setting: the value for `O=C1Nc2ccc(Cl)cc2/C1=C\c1ccc(-c2cccc(C(=O)NCCCn3ccnc3)c2)o1` [Compound 123] was less than 1 µM; that for `O=C1Nc2ccc(Cl)cc2/C1=C\c1ccc(-c2cccc(C(=O)NCCCN3CCOCC3)c2)o1` [Compound 124] was less than 1 µM; that for `O=C1Nc2ccccc2/C1=C\c1ccc(-c2ccc(C(=O)O)nc2)o1` [Compound 127] was less than 1 µM.
